# Assay results reported in ChEMBL document CHEMBL1201862, “PubChem BioAssay data set” (2004).
#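 In this assay, cells in 96-well plates receive the compound at five concentrations for 48 hours. Endpoints are linearly interpolated between the surrounding concentrations. Here, GI50 denotes the concentration required for 50% inhibition of growth.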 The source made the active and inactive calls. Rule as the data show it: active = GI50 up to about 1.1 µM and inactive = higher.
# Tests used:
# Assay in all cases: NCI anticancer screen, dose series, 48 h
# HL-60 = test system: HL-60
# SF-268 = test system: SF-268
# SK-MEL-5 = test system: SK-MEL-5
# KM-20L2 = test system: KM-20L2
# SF-295 = test system: SF-295
# M19-MEL = test system: M19-MEL
# DMS-273 = test system: DMS-273
# MOLT-4 = test system: MOLT-4
# SF-539 = test system: SF-539
# RPMI-8226 = test system: RPMI-8226
# IGROV-1 = test system: IGROV-1
# 786-0 = test system: 786-0
# NCI-H226 = test system: NCI-H226
# U-251 = test system: U-251
# RXF 393 = test system: RXF 393
# HT-29 = test system: HT-29
# SW-620 = test system: SW-620
# KM12 = test system: KM12
# SN12C = test system: SN12C
# NCI-H23 = test system: NCI-H23
# UACC-257 = test system: UACC-257
# A549 = test system: A549
# DMS-114 = test system: DMS-114
# COLO 205 = test system: COLO 205
# UO-31 = test system: UO-31
# OVCAR-8 = test system: OVCAR-8
# K562 = test system: K562
# NCI-H460 = test system: NCI-H460
# TK-10 = test system: TK-10
# XF498 = test system: XF498
# M14 = test system: M14
# OVCAR-3 = test system: OVCAR-3
# CCRF-CEM = test system: CCRF-CEM
# Malme-3M = test system: Malme-3M
# LOX IMVI = test system: LOX IMVI
# ACHN = test system: ACHN
# LXFL 529 = test system: LXFL 529
# SK-MEL-28 = test system: SK-MEL-28
# SK-OV-3 = test system: SK-OV-3
# HCC 2998 = test system: HCC 2998
# HCT-15 = test system: HCT-15
# EKVX = test system: EKVX
# SNB-19 = test system: SNB-19
# SR = test system: SR
# NCI-H522 = test system: NCI-H522
# HCT-116 = test system: HCT-116
# HOP-62 = test system: HOP-62
# MDA-MB-435 = test system: MDA-MB-435
# SK-MEL-2 = test system: SK-MEL-2
# A498 = test system: A498
# OVCAR-4 = test system: OVCAR-4
# Hs-578T = test system: Hs-578T
# SNB-78 = test system: SNB-78
# OVCAR-5 = test system: OVCAR-5
# SNB-75 = test system: SNB-75
# NCI/ADR-RES = test system: NCI/ADR-RES
# DU-145 = test system: DU-145
# MDA-N = test system: MDA-N
# MDA-MB-231 = test system: MDA-MB-231
# DLD-1 = test system: DLD-1
# UACC-62 = test system: UACC-62
# HOP-18 = test system: HOP-18
# HOP-92 = test system: HOP-92
# MCF7 = test system: MCF7
# BT-549 = test system: BT-549
# CAKI-1 = test system: CAKI-1
# PC-3 = test system: PC-3
# T47D = test system: T47D
structure (smiles),measurement,setting,value
O=C1CCC2(CCC(=O)NC2=O)C(=O)N1,GI50,HL-60,> 100 µM (inactive)
same,GI50,SF-268,> 100 µM (inactive)
same,GI50,SK-MEL-5,> 100 µM (inactive)
same,GI50,KM-20L2,> 100 µM (inactive)
same,GI50,SF-295,> 100 µM (inactive)
same,GI50,M19-MEL,> 100 µM (inactive)
same,GI50,DMS-273,> 100 µM (inactive)
same,GI50,MOLT-4,> 100 µM (inactive)
same,GI50,SF-539,> 100 µM (inactive)
same,GI50,RPMI-8226,> 100 µM (inactive)
same,GI50,IGROV-1,> 100 µM (inactive)
same,GI50,786-0,> 100 µM (inactive)
same,GI50,NCI-H226,> 100 µM (inactive)
same,GI50,U-251,> 100 µM (inactive)
same,GI50,RXF 393,> 100 µM (inactive)
same,GI50,HT-29,> 100 µM (inactive)
same,GI50,SW-620,> 100 µM (inactive)
same,GI50,KM12,> 100 µM (inactive)
same,GI50,SN12C,> 100 µM (inactive)
same,GI50,NCI-H23,> 100 µM (inactive)
same,GI50,UACC-257,> 100 µM (inactive)
same,GI50,A549,> 100 µM (inactive)
same,GI50,DMS-114,> 100 µM (inactive)
same,GI50,COLO 205,> 100 µM (inactive)
same,GI50,UO-31,> 100 µM (inactive)
same,GI50,OVCAR-8,> 100 µM (inactive)
same,GI50,K562,> 100 µM (inactive)
same,GI50,NCI-H460,> 100 µM (inactive)
same,GI50,TK-10,> 100 µM (inactive)
same,GI50,XF498,> 100 µM (inactive)
same,GI50,M14,> 100 µM (inactive)
same,GI50,OVCAR-3,> 100 µM (inactive)
same,GI50,CCRF-CEM,> 100 µM (inactive)
same,GI50,Malme-3M,> 100 µM (inactive)
same,GI50,LOX IMVI,> 100 µM (inactive)
same,GI50,ACHN,> 100 µM (inactive)
same,GI50,LXFL 529,> 100 µM (inactive)
same,GI50,SK-MEL-28,> 100 µM (inactive)
same,GI50,SK-OV-3,> 100 µM (inactive)
same,GI50,HCC 2998,> 100 µM (inactive)
same,GI50,HCT-15,> 100 µM
same,GI50,EKVX,> 100 µM (inactive)
same,GI50,SNB-19,> 100 µM (inactive)
same,GI50,SR,> 100 µM (inactive)
same,GI50,NCI-H522,> 100 µM (inactive)
same,GI50,HCT-116,> 100 µM (inactive)
same,GI50,HOP-62,> 100 µM (inactive)
CN(C)CCCNc1ccc2nnn3c4ccc(O)cc4c(=O)c1c23,GI50,HL-60,3.72 µM (inactive)
same,GI50,SF-268,2.88 µM (inactive)
same,GI50,MDA-MB-435,8.22 µM (inactive)
same,GI50,SK-MEL-5,5.73 µM (inactive)
same,GI50,SK-MEL-2,12.7 µM (inactive)
same,GI50,KM-20L2,3.3 µM (inactive)
same,GI50,SF-295,4.37 µM (inactive)
same,GI50,M19-MEL,12.6 µM (inactive)
same,GI50,A498,6.92 µM (inactive)
same,GI50,OVCAR-4,4.54 µM (inactive)
same,GI50,MOLT-4,0.2 µM (active)
same,GI50,SF-539,6.44 µM (inactive)
same,GI50,Hs-578T,1.41 µM (inactive)
same,GI50,RPMI-8226,2.47 µM (inactive)
same,GI50,IGROV-1,1.92 µM (inactive)
same,GI50,SNB-78,6.08 µM (inactive)
same,GI50,786-0,2.86 µM (inactive)
same,GI50,NCI-H226,2.51 µM (inactive)
same,GI50,U-251,2.73 µM (inactive)
same,GI50,RXF 393,0.149 µM (active)
same,GI50,HT-29,2.74 µM (inactive)
same,GI50,SW-620,1.16 µM (inactive)
same,GI50,KM12,1.68 µM (inactive)
same,GI50,OVCAR-5,9.98 µM (inactive)
same,GI50,SN12C,2.95 µM (inactive)
same,GI50,NCI-H23,3.56 µM (inactive)
same,GI50,UACC-257,15.8 µM (inactive)
same,GI50,A549,0.358 µM (active)
same,GI50,DMS-114,9.18 µM (inactive)
same,GI50,COLO 205,2.51 µM (inactive)
same,GI50,UO-31,2.06 µM (inactive)
same,GI50,SNB-75,3.37 µM (inactive)
same,GI50,OVCAR-8,1.5 µM (inactive)
same,GI50,NCI/ADR-RES,4.56 µM (inactive)
same,GI50,K562,7.26 µM (inactive)
same,GI50,NCI-H460,0.453 µM (active)
same,GI50,TK-10,4.67 µM (inactive)
same,GI50,DU-145,5.01 µM (inactive)
same,GI50,M14,7.89 µM (inactive)
same,GI50,MDA-N,6.52 µM (inactive)
same,GI50,OVCAR-3,9.02 µM (inactive)
same,GI50,MDA-MB-231,10.7 µM (inactive)
same,GI50,CCRF-CEM,1.28 µM (inactive)
same,GI50,DLD-1,1.42 µM (inactive)
same,GI50,UACC-62,11 µM (inactive)
same,GI50,Malme-3M,10.3 µM (inactive)
same,GI50,LOX IMVI,1.16 µM (inactive)
same,GI50,HOP-18,9.06 µM (inactive)
same,GI50,ACHN,1.26 µM (inactive)
same,GI50,HOP-92,4.26 µM (inactive)
same,GI50,LXFL 529,6.61 µM (inactive)
same,GI50,SK-MEL-28,6.52 µM (inactive)
same,GI50,SK-OV-3,5.6 µM (inactive)
same,GI50,MCF7,5.7 µM (inactive)
same,GI50,HCC 2998,1.89 µM (inactive)
same,GI50,BT-549,18.8 µM (inactive)
same,GI50,CAKI-1,1.64 µM (inactive)
same,GI50,PC-3,2.84 µM (inactive)
same,GI50,HCT-15,2.85 µM
same,GI50,EKVX,9.98 µM (inactive)
same,GI50,T47D,21 µM (inactive)
same,GI50,SNB-19,6.61 µM (inactive)
same,GI50,SR,0.193 µM (active)
same,GI50,NCI-H522,3.7 µM (inactive)
same,GI50,HCT-116,1.34 µM (inactive)
same,GI50,HOP-62,3.27 µM (inactive)
